Inhibition data for three molecules are collected here from ChEMBL document CHEMBL5696442, “Discovery of type II inhibitors of TGFβ-activated kinase 1 (TAK1) and mitogen-activated protein kinase kinase kinase kinase 2 (MAP4K2)” (J Med Chem, 2015).

In general, inhibition refers to the share of the control response that was lost under treatment.

Calls of active or inactive are those of the source. No cut-off for these calls is given here.

Experiment [1] concerns the target T1, Serine/threonine-protein kinase D2 (Homo sapiens) (UniProt Q9BZL6).
T1 sequence (whole entry): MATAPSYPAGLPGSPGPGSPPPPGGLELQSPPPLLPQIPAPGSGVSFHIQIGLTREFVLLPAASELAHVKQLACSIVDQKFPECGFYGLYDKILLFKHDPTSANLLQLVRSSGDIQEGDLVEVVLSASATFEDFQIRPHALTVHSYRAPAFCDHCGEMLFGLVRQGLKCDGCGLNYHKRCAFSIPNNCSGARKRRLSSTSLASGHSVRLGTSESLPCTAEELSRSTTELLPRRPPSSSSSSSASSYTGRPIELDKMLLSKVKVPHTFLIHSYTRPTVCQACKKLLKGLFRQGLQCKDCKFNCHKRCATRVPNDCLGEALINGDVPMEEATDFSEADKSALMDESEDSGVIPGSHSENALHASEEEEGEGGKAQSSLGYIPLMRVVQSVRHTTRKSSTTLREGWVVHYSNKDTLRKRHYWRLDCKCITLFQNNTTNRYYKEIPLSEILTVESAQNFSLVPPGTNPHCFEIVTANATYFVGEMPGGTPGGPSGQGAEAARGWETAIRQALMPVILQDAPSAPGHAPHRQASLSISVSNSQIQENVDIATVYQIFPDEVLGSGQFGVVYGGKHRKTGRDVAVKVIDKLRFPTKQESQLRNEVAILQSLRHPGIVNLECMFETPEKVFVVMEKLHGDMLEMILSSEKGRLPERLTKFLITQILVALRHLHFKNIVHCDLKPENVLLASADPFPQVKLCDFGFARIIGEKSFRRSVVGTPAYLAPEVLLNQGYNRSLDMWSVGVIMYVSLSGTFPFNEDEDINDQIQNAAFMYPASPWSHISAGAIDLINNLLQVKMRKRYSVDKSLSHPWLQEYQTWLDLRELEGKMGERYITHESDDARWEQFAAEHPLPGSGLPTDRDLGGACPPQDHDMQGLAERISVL
The experiment is described as follows: Inhibition of PRKD2 (unknown origin) at 1 uM by Ambit Kinomescan binding assay relative to control.

Experiment [2] deals with T2, Dual specificity mitogen-activated protein kinase kinase 6 (Homo sapiens) (UniProt P52564).
T2 sequence (whole entry): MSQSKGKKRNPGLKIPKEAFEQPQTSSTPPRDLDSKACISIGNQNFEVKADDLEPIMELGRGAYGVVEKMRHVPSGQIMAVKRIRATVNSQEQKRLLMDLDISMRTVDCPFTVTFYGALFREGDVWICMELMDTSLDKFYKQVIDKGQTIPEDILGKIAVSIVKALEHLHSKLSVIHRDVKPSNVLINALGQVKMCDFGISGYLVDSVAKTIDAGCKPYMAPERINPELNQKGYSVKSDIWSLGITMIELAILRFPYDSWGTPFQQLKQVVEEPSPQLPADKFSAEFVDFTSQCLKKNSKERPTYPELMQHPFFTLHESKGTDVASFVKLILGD
As to the kind of experiment: Inhibition of MAP2K6 ACT labeling site in human Huh-7 cells at 10 uM by KiNativ Profiling analysis relative to control. It counts as cell-based.

The target in experiment [3] is T3, Ephrin type-B receptor 4 (Homo sapiens) (UniProt P54760).
T3 sequence (whole entry): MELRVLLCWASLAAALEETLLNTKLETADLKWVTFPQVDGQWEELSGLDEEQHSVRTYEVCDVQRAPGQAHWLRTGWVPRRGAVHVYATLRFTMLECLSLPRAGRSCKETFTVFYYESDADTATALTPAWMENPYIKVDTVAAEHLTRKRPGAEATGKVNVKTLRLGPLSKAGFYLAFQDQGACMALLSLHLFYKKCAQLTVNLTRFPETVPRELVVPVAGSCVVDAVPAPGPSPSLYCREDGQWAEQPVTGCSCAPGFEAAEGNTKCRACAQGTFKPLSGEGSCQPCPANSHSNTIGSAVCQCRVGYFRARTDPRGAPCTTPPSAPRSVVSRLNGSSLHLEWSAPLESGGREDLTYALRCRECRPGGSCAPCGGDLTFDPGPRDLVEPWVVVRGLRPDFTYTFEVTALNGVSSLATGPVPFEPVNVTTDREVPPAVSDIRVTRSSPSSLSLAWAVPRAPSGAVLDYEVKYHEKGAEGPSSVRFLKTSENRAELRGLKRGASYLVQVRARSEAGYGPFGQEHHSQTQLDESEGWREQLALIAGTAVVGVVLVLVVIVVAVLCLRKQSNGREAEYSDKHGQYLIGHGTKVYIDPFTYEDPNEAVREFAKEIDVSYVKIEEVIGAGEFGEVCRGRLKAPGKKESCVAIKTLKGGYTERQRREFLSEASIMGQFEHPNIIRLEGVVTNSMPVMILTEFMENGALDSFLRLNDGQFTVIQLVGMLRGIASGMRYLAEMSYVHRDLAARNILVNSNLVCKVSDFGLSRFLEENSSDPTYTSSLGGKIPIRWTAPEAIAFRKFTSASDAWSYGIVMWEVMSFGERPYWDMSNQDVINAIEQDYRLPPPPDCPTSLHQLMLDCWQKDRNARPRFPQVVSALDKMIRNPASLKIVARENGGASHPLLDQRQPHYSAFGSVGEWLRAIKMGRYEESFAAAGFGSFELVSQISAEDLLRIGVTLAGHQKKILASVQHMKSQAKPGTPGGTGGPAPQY
As to the kind of experiment: Inhibition of EPHB4 (unknown origin) at 10 uM by Ambit Kinomescan binding assay.

The target in experiment [4] is Calcium/calmodulin-dependent protein kinase type 1 (Homo sapiens) (UniProt Q14012). The experiment is described as follows: Inhibition of CaMK1a K1 labeling site in human Huh-7 cells at 10 uM by KiNativ Profiling analysis relative to control. Type of experiment: cell-based.
Experiment [5] has as its target Calcium/calmodulin-dependent protein kinase kinase 2 (Homo sapiens) (UniProt Q96RR4). As to the kind of experiment: Inhibition of CaMKK2 Lys1 labeling site in human A-375 cells at 0.5 uM by KiNativ Profiling analysis relative to control. It counts as cell-based.
For experiment [6], the target named is Serine/threonine-protein kinase/endoribonuclease IRE1 (Homo sapiens) (UniProt O75460). As to the kind of experiment: Inhibition of IRE1 Lys2 labeling site in human A-375 cells at 0.05 uM by KiNativ Profiling analysis relative to control. It counts as cell-based.
The target of experiment [7] is Mitogen-activated protein kinase kinase kinase 10 (Homo sapiens) (UniProt Q02779). As to the kind of experiment: Inhibition of MLK2 (unknown origin) at 10 uM by Ambit Kinomescan binding assay.
Experiment [8] concerns the target MAP/microtubule affinity-regulating kinase 3 (Homo sapiens) (UniProt P27448). As to the kind of experiment: Inhibition of MARK3 (unknown origin) at 10 uM by Ambit Kinomescan binding assay.
The target in experiment [9] is RAF proto-oncogene serine/threonine-protein kinase (Homo sapiens, UniProt P04049). As to the kind of experiment: Inhibition of RAF1 Lys2 labeling site in human Huh-7 cells at 1 uM by KiNativ Profiling analysis relative to control. Type of experiment: cell-based.
Experiment [10] addresses T2, Dual specificity mitogen-activated protein kinase kinase 6 (Homo sapiens). The experiment is described as follows: Inhibition of MAP2K6 Lys1 labeling site in human Huh-7 cell lysate at 1 uM by KiNativ Profiling analysis relative to control. It counts as subcellular.
Experiment [11] has as its target Casein kinase I isoform alpha (Homo sapiens) (UniProt P48729). As to the kind of experiment: Inhibition of CK1alpha Lys2 labeling site in human Huh-7 cell lysate at 1 uM by KiNativ Profiling analysis relative to control. Type of experiment: subcellular.

Serine/threonine-protein kinase/endoribonuclease IRE1 (Homo sapiens), sequence (O75460 19-977 limits assumed): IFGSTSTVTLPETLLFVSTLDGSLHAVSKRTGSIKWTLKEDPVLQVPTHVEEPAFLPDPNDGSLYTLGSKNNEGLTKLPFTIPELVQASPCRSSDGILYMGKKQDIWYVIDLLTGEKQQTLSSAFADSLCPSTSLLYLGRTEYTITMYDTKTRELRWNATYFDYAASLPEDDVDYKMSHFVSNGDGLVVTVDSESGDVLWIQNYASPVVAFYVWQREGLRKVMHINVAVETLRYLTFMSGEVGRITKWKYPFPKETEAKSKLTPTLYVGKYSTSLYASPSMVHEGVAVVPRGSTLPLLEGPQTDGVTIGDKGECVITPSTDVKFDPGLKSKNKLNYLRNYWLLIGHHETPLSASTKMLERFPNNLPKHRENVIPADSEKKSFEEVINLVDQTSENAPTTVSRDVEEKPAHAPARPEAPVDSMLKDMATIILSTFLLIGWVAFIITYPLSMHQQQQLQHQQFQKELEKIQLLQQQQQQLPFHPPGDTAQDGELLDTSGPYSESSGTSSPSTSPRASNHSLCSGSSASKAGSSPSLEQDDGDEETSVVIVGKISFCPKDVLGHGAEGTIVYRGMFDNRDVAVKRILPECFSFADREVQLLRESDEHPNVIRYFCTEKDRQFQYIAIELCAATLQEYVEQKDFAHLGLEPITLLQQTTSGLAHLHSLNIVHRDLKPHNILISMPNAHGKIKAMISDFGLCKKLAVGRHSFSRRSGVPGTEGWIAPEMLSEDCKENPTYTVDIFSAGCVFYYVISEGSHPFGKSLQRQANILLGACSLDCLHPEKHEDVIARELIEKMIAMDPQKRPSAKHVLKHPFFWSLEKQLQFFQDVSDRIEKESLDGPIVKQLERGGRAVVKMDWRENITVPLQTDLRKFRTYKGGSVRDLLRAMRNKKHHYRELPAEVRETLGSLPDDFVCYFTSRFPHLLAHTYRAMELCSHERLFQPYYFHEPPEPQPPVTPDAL
MAP/microtubule affinity-regulating kinase 3 (Homo sapiens), sequence (P27448 whole entry, looked up): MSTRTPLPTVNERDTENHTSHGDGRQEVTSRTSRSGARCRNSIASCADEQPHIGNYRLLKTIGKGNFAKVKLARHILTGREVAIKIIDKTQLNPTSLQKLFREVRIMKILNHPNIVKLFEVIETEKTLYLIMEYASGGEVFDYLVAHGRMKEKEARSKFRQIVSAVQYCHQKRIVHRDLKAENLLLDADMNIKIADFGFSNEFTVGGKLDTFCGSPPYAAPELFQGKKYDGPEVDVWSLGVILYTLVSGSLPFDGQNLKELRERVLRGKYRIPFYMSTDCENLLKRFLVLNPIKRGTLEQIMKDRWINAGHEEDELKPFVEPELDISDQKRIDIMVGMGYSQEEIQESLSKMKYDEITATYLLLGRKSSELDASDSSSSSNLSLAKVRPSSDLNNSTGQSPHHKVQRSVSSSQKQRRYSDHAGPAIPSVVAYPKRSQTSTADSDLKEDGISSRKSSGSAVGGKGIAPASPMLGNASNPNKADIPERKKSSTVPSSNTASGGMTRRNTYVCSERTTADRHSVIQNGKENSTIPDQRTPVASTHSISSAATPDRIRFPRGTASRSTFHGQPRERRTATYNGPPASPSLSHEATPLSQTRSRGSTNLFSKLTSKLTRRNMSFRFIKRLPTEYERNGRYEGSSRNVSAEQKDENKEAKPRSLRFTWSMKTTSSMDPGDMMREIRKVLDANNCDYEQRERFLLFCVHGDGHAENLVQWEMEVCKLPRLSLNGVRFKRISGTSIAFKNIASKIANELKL
RAF proto-oncogene serine/threonine-protein kinase, sequence (P04049 whole entry): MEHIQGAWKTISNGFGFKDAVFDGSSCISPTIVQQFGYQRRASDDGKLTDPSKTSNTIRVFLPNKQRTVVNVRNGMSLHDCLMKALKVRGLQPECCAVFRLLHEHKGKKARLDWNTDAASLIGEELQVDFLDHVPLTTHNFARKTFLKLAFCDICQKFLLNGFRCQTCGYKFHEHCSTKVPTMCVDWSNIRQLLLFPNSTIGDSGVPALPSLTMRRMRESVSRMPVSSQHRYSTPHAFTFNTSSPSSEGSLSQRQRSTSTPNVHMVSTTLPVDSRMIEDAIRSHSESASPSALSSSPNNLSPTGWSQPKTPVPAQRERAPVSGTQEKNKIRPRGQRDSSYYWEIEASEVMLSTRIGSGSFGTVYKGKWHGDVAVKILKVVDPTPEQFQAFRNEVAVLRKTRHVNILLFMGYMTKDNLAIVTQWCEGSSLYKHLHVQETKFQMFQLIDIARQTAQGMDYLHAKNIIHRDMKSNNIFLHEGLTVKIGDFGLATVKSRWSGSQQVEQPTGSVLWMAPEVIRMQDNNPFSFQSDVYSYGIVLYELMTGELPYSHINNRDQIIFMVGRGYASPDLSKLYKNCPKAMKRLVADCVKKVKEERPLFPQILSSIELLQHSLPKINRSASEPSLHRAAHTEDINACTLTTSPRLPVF
Casein kinase I isoform alpha (Homo sapiens), sequence (P48729 2-337 limits assumed): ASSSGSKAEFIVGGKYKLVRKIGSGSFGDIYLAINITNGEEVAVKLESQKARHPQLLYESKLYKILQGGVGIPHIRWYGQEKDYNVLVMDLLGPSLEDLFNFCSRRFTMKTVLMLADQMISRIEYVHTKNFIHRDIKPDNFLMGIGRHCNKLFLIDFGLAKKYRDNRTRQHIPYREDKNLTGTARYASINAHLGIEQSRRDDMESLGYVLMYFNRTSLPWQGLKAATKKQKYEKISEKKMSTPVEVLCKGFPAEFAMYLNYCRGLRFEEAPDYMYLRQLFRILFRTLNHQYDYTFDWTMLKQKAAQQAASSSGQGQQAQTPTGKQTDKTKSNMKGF
Calcium/calmodulin-dependent protein kinase type 1 (Homo sapiens), sequence (Q14012 whole entry, looked up): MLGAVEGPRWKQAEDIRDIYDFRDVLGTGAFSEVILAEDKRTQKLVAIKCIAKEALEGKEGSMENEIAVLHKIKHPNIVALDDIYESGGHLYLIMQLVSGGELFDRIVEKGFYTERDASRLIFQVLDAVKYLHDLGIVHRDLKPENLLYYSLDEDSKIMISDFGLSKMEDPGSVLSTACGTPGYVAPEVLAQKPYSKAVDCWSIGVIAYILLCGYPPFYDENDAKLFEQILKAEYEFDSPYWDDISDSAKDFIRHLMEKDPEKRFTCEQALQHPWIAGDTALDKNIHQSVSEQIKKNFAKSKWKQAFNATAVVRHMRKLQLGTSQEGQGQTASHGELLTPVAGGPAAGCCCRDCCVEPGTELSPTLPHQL
Calcium/calmodulin-dependent protein kinase kinase 2 (Homo sapiens), sequence (Q96RR4 2-588 limits assumed): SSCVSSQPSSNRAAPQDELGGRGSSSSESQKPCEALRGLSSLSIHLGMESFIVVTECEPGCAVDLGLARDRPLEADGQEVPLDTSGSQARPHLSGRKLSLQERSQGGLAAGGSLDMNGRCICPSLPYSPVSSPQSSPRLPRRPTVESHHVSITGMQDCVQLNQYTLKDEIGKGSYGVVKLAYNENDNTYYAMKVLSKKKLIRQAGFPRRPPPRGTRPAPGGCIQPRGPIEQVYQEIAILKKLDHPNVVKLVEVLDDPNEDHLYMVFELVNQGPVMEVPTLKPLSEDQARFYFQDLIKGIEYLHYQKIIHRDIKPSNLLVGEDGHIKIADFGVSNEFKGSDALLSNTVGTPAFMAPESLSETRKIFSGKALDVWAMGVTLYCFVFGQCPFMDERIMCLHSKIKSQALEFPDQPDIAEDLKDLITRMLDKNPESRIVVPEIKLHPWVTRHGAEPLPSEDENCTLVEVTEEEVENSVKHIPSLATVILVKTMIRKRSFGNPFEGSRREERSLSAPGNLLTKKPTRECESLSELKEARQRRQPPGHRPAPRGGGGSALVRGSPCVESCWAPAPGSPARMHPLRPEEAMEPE
Mitogen-activated protein kinase kinase kinase 10 (Homo sapiens), sequence (Q02779 whole entry, looked up): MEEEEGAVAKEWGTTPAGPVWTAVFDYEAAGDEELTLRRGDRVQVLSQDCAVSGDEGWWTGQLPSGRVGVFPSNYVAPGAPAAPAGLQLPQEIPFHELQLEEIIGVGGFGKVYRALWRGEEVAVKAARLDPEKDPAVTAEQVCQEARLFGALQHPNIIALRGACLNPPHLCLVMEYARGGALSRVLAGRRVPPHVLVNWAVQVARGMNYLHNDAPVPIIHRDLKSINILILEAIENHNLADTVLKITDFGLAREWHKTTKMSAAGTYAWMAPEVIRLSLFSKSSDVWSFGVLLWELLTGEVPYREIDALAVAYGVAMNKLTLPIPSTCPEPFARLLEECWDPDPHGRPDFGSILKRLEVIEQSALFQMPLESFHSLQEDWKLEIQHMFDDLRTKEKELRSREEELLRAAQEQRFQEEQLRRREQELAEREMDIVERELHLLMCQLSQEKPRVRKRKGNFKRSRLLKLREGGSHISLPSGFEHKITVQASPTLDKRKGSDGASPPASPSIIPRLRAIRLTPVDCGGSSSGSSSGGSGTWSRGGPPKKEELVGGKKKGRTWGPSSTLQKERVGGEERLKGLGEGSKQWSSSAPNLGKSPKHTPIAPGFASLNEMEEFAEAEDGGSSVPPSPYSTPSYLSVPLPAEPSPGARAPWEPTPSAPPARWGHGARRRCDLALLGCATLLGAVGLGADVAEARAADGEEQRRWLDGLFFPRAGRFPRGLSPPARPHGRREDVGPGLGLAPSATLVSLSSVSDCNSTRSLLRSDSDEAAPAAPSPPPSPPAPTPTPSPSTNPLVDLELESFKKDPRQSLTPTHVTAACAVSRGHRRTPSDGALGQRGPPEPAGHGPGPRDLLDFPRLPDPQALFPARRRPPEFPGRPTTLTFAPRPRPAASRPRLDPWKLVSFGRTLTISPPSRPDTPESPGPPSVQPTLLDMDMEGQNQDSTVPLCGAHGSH

`CCN1CCN(Cc2ccc(NC(=O)c3ccc(C)c(/C=C/c4cnc5[nH]ccc5c4OC)c3)cc2C(F)(F)F)CC1`: the inhibition in [1] is 81%.
`CCN1CCN(Cc2ccc(NC(=O)c3ccc(C)c(Oc4ccnc5[nH]ccc45)c3)cc2C(F)(F)F)CC1`: the inhibition in [2] is 15.4%; in [4], 48.2%; in [5], 6.3%; in experiment [6], 15.9%. For the same molecule, the inhibition entry in experiment [3], in experiment [7] and in experiment [8] was “inactive” in each case.
In the case of `CNc1cc(Oc2cc(C(=O)Nc3cc(N4CCN(C)CC4)cc(C(F)(F)F)c3)ccc2C)ncn1`, the figures for the inhibition in experiment [9], in experiment [10] and in experiment [11] were 34.1%, 5.3% and 3.8%, respectively.
